Measurements published in ChEMBL document CHEMBL4138123, “Design, synthesis and biological evaluation of novel pyrazolochalcones as potential modulators of PI3K/Akt/mTOR pathway and inducers of apoptosis in breast cancer cells” (Eur J Med Chem, 2017).

Tests used:
Assay type in all cases: functional
NCI-H23 [1] = test: Cytotoxicity against human NCI-H23 cells assessed as growth inhibition after 48 hrs by sulforhodamine B assay; details: NCI-H23, 48 h; for CC50: read-out: LC50 (the source's name)
SF-268 = test: Cytotoxicity against human SF268 cells assessed as growth inhibition after 48 hrs by sulforhodamine B assay; details: SF-268, 48 h; for CC50: read-out: LC50 (the source's name)
SK-MEL-5 [2] = test: Cytotoxicity against human SK-MEL-5 cells assessed as growth inhibition after 48 hrs by sulforhodamine B assay; details: SK-MEL-5, 48 h
SK-OV-3 = test: Cytotoxicity against human SKOV3 cells assessed as growth inhibition after 48 hrs by sulforhodamine B assay; details: SK-OV-3, 48 h
SN12C = test: Cytotoxicity against human SN12C cells assessed as growth inhibition after 48 hrs by sulforhodamine B assay
SK-MEL-5 [3] = test: Cytotoxicity against human SK-MEL-5 cells assessed as cell growth at 0.01 uM after 48 hrs by sulforhodamine B assay relative to control; details: SK-MEL-5, 48 h, read-out: Activity
Malme-3M = test: Cytotoxicity against human MALME-3M cells assessed as cell growth at 0.01 uM after 48 hrs by sulforhodamine B assay relative to control; details: read-out: Activity
RPMI-8226 = test: Cytotoxicity against human RPMI8226 cells assessed as cell growth at 0.01 uM after 48 hrs by sulforhodamine B assay relative to control; details: RPMI-8226, 48 h, read-out: Activity
MOLT-4 = test: Cytotoxicity against human MOLT4 cells assessed as cell growth at 0.01 uM after 48 hrs by sulforhodamine B assay relative to control; details: MOLT-4, 48 h, read-out: Activity
BT-549 = test: Cytotoxicity against human BT549 cells assessed as cell growth at 0.01 uM after 48 hrs by sulforhodamine B assay relative to control; details: BT-549, 48 h, read-out: Activity
A549 = test: Cytotoxicity against human A549/ATCC cells assessed as cell growth at 0.1 uM after 48 hrs by sulforhodamine B assay relative to control; details: A549, 48 h, read-out: Activity
SW-620 [4] = test: Cytotoxicity against human SW620 cells assessed as cell growth at 0.1 uM after 48 hrs by sulforhodamine B assay relative to control; details: SW-620, 48 h, read-out: Activity
M14 = test: Cytotoxicity against human M14 cells assessed as cell growth at 0.1 uM after 48 hrs by sulforhodamine B assay relative to control; details: M14, 48 h, read-out: Activity
Hs-578T [5] = test: Cytotoxicity against human Hs 578T cells assessed as cell growth at 0.1 uM after 48 hrs by sulforhodamine B assay relative to control; details: read-out: Activity
NCI-H522 = test: Cytotoxicity against human NCI-H522 cells assessed as cell growth at 1 uM after 48 hrs by sulforhodamine B assay relative to control; details: NCI-H522, 48 h, read-out: Activity
HCT-15 = test: Cytotoxicity against human HCT15 cells assessed as cell growth at 1 uM after 48 hrs by sulforhodamine B assay relative to control; details: HCT-15, 48 h, read-out: Activity
OVCAR-4 [6] = test: Cytotoxicity against human OVCAR4 cells assessed as cell growth at 1 uM after 48 hrs by sulforhodamine B assay relative to control; details: OVCAR-4, 48 h, read-out: Activity
A498 = test: Cytotoxicity against human A498 cells assessed as cell growth at 1 uM after 48 hrs by sulforhodamine B assay relative to control; details: A498, 48 h, read-out: Activity
TK-10 [7] = test: Cytotoxicity against human TK10 cells assessed as cell growth at 1 uM after 48 hrs by sulforhodamine B assay relative to control; details: TK-10, 48 h, read-out: Activity
MDA-MB-231 = test: Cytotoxicity against human MDA-MB-231 cells assessed as cell growth at 1 uM after 48 hrs by sulforhodamine B assay relative to control; details: MDA-MB-231, 48 h, read-out: Activity
MDA-MB-468 = test: Cytotoxicity against human MDA-MB-468 cells assessed as cell growth at 1 uM after 48 hrs by sulforhodamine B assay relative to control; details: MDA-MB-468, 48 h, read-out: Activity
NCI-H322M = test: Cytotoxicity against human NCI-H322M cells assessed as cell growth at 10 uM after 48 hrs by sulforhodamine B assay relative to control; details: read-out: Activity
SW-620 [8] = test: Cytotoxicity against human SW620 cells assessed as cell growth at 10 uM after 48 hrs by sulforhodamine B assay relative to control; details: SW-620, 48 h, read-out: Activity
MDA-MB-435 = test: Cytotoxicity against human MDA-MB-435 cells assessed as cell growth at 10 uM after 48 hrs by sulforhodamine B assay relative to control; details: MDA-MB-435, 48 h, read-out: Activity
UACC-62 = test: Cytotoxicity against human UACC62 cells assessed as cell growth at 10 uM after 48 hrs by sulforhodamine B assay relative to control; details: UACC-62, 48 h, read-out: Activity
Hs-578T [9] = test: Cytotoxicity against human Hs 578T cells assessed as cell growth at 10 uM after 48 hrs by sulforhodamine B assay relative to control; details: read-out: Activity
CCRF-CEM = test: Cytotoxicity against human CCRF-CEM cells assessed as cell growth at 100 uM after 48 hrs by sulforhodamine B assay relative to control; details: read-out: Activity
NCI-H226 = test: Cytotoxicity against human NCI-H226 cells assessed as cell growth at 100 uM after 48 hrs by sulforhodamine B assay relative to control; details: NCI-H226, 48 h, read-out: Activity
NCI-H23 [10] = test: Cytotoxicity against human NCI-H23 cells assessed as cell growth at 100 uM after 48 hrs by sulforhodamine B assay relative to control; details: NCI-H23, 48 h, read-out: Activity
HCT-116 = test: Cytotoxicity against human HCT116 cells assessed as cell growth at 100 uM after 48 hrs by sulforhodamine B assay relative to control; details: HCT-116, 48 h, read-out: Activity
OVCAR-4 [11] = test: Cytotoxicity against human OVCAR4 cells assessed as cell growth at 100 uM after 48 hrs by sulforhodamine B assay relative to control; details: OVCAR-4, 48 h, read-out: Activity
NCI/ADR-RES = test: Cytotoxicity against human NCI/ADR-RES cells assessed as cell growth at 100 uM after 48 hrs by sulforhodamine B assay relative to control; details: read-out: Activity
TK-10 [12] = test: Cytotoxicity against human TK10 cells assessed as cell growth at 100 uM after 48 hrs by sulforhodamine B assay relative to control; details: TK-10, 48 h, read-out: Activity
SR = test: Cytotoxicity against human SR cells assessed as cell growth at 10 uM after 48 hrs by sulforhodamine B assay relative to control; details: read-out: Activity

COc1ccc(C(=O)/C=C/c2cc(-c3ccc(OC)c(OC)c3)n[nH]2)cc1OC
GI50 (NCI-H23 [1]): 2.25 µM
TGI (NCI-H23 [1]): 5.7 µM
CC50 (NCI-H23 [1]): > 100 µM
GI50 (SF-268): 2.09 µM
TGI (SF-268): 9.82 µM
CC50 (SF-268): > 100 µM
GI50 (SK-MEL-5 [2]): 1.58 µM
TGI (SK-MEL-5 [2]): 2.96 µM
GI50 (SK-OV-3): 3.13 µM
TGI (SK-OV-3): 33.3 µM
GI50 (SN12C): 1.92 µM
TGI (SN12C): 4.82 µM
growth at 0.01 µM (SK-MEL-5 [3]): 96%
growth at 0.01 µM (Malme-3M): 99%
growth at 0.01 µM (RPMI-8226): 98%
growth at 0.01 µM (MOLT-4): 103%
growth at 0.01 µM (BT-549): 84%
growth at 0.1 µM (A549): 93%
growth at 0.1 µM (SW-620 [4]): 95%
growth at 0.1 µM (M14): 94%
growth at 0.1 µM (Hs-578T [5]): 91%
growth at 1 µM (NCI-H522): 82%
growth at 1 µM (HCT-15): 53%
growth at 1 µM (OVCAR-4 [6]): 72%
growth at 1 µM (A498): 63%
growth at 1 µM (TK-10 [7]): 106%
growth at 1 µM (MDA-MB-231): 76%
growth at 1 µM (MDA-MB-468): 55%
growth at 10 µM (NCI-H322M): -9%
growth at 10 µM (SW-620 [8]): -24%
growth at 10 µM (MDA-MB-435): -69%
growth at 10 µM (UACC-62): -57%
growth at 10 µM (Hs-578T [9]): 23%
growth at 100 µM (CCRF-CEM): -20%
growth at 100 µM (NCI-H226): -5%
growth at 100 µM (NCI-H23 [10]): -21%
growth at 100 µM (HCT-116): -45%
growth at 100 µM (OVCAR-4 [11]): -40%
growth at 100 µM (NCI/ADR-RES): -15%
growth at 100 µM (TK-10 [12]): -12%

COc1ccc(-c2cc(/C=C/C(=O)c3cc(OC)c(OC)c(OC)c3)[nH]n2)cc1OC
GI50 (NCI-H23 [1]): 1.97 µM
TGI (NCI-H23 [1]): 4.91 µM
CC50 (NCI-H23 [1]): > 100 µM
GI50 (SF-268): 1.68 µM
TGI (SF-268): 3.9 µM
CC50 (SF-268): 9.03 µM
GI50 (SK-MEL-5 [2]): 1.58 µM
LC50 (concentration killing 50% of cells) (SK-MEL-5 [2]): 5.44 µM
TGI (SK-MEL-5 [2]): 2.93 µM
GI50 (SK-OV-3): 5.47 µM
LC50 (SK-OV-3): 45.5 µM
TGI (SK-OV-3): 19 µM
GI50 (SN12C): 1.77 µM
LC50 (SN12C): 8.26 µM
TGI (SN12C): 3.83 µM
growth at 0.01 µM (SK-MEL-5 [3]): 101%
growth at 0.01 µM (Malme-3M): 98%
growth at 0.01 µM (RPMI-8226): 97%
growth at 0.01 µM (MOLT-4): 99%
growth at 0.01 µM (BT-549): 96%
growth at 0.1 µM (A549): 98%
growth at 0.1 µM (SW-620 [4]): 96%
growth at 0.1 µM (M14): 92%
growth at 0.1 µM (Hs-578T [5]): 97%
growth at 1 µM (NCI-H522): 71%
growth at 1 µM (HCT-15): 57%
growth at 1 µM (OVCAR-4 [6]): 66%
growth at 1 µM (A498): 65%
growth at 1 µM (TK-10 [7]): 96%
growth at 1 µM (MDA-MB-231): 67%
growth at 1 µM (MDA-MB-468): 66%
growth at 10 µM (SR): -10%
growth at 10 µM (NCI-H322M): -23%
growth at 10 µM (SW-620 [8]): -43%
growth at 10 µM (MDA-MB-435): -55%
growth at 10 µM (UACC-62): -61%
growth at 10 µM (Hs-578T [9]): 9%
growth at 100 µM (CCRF-CEM): -13%
growth at 100 µM (NCI-H226): -43%
growth at 100 µM (NCI-H23 [10]): -50%
growth at 100 µM (HCT-116): -61%
growth at 100 µM (NCI/ADR-RES): -7%
growth at 100 µM (TK-10 [12]): -94%

COc1ccc(-c2cc(/C=C/C(=O)c3ccc(N)cc3)[nH]n2)cc1OC
GI50 (NCI-H23 [1]): 4.21 µM
TGI (NCI-H23 [1]): 19.3 µM
CC50 (NCI-H23 [1]): 95.6 µM
GI50 (SF-268): 1.89 µM
TGI (SF-268): 4.4 µM
CC50 (SF-268): 11.2 µM
GI50 (SK-MEL-5 [2]): 3.16 µM
LC50 (concentration killing 50% of cells) (SK-MEL-5 [2]): 36.1 µM
TGI (SK-MEL-5 [2]): 11.5 µM
GI50 (SK-OV-3): 4.86 µM
LC50 (SK-OV-3): 41.3 µM
TGI (SK-OV-3): 16.8 µM
GI50 (SN12C): 3.53 µM
LC50 (SN12C): 41.3 µM
TGI (SN12C): 13.7 µM
growth at 0.01 µM (SK-MEL-5 [3]): 99%
growth at 0.01 µM (Malme-3M): 104%
growth at 0.01 µM (RPMI-8226): 98%
growth at 0.01 µM (MOLT-4): 108%
growth at 0.01 µM (BT-549): 84%
growth at 0.1 µM (A549): 93%
growth at 0.1 µM (SW-620 [4]): 97%
growth at 0.1 µM (M14): 97%
growth at 0.1 µM (Hs-578T [5]): 93%
growth at 1 µM (NCI-H522): 87%
growth at 1 µM (HCT-15): 73%
growth at 1 µM (OVCAR-4 [6]): 69%
growth at 1 µM (A498): 89%
growth at 1 µM (TK-10 [7]): 107%
growth at 1 µM (MDA-MB-231): 98%
growth at 1 µM (MDA-MB-468): 77%
growth at 10 µM (SR): -13%
growth at 10 µM (NCI-H322M): 24%
growth at 10 µM (SW-620 [8]): -18%
growth at 10 µM (MDA-MB-435): -15%
growth at 10 µM (UACC-62): 3%
growth at 10 µM (Hs-578T [9]): 40%
growth at 100 µM (CCRF-CEM): -22%
growth at 100 µM (NCI-H226): -55%
growth at 100 µM (NCI-H23 [10]): -51%
growth at 100 µM (HCT-116): -89%
growth at 100 µM (OVCAR-4 [11]): -98%
growth at 100 µM (NCI/ADR-RES): 2%
growth at 100 µM (TK-10 [12]): -98%
